Assay results as given in paper PMC12363950 (bioRxiv, 2025).

Molecular target: CRAF (Homo sapiens, UniProt P04049, Y340D/Y341D)

SMILES: CCCS(=O)(=O)Nc1ccc(F)c(C(=O)c2c[nH]c3ncc(Cl)cc23)c1F [PLX4720]
- X-ray crystal structure, 2.91 Å: The structure reveals clear electron density for both PLX4720 and CH5126766
